Measurements as given in patent US8653041B2, “Antibacterial aminoglycoside analogs” (Achaogen, Inc., priority 2010, dated 2014).
In brackets after ≈: the same amount, converted by molar mass. Read-outs that look alike come from different tables or passages of the source.

Key:
[1] = tested on: Pseudomonas aeruginosa; experiment: MIC, CLSI broth microdilution, Pseudomonas aeruginosa panel; type: cell-based
Method: (§1) Minimum inhibitory concentrations (MIC) were determined by reference Clinical and Laboratory Standards Institute (CLSI) broth microdilution methods per M7-A7 [2006]. Quality control ranges utilizing E. coli ATCC 25922, P. aeruginosa ATCC 27853 and S. aureus ATCC 29213, and interpretive criteria for comparator agents were as published in CLSI M100-S17 [2007]. Briefly, serial two-fold dilutions of the test compounds were prepared at 2× concentration in Mueller Hinton Broth. The compound dilutions were mixed in 96-well assay plates in a 1:1 ratio with bacterial inoculum. The inoculum was prepared by suspension of a colony from an agar plate that was prepared the previous day. Bacteria were suspended in sterile saline and added to each assay plate to obtain a final concentration of 5×10^5 CFU/mL. The plates were incubated at 35 C for 20 hours in ambient air.
The MIC panel presented in Table 1 contains 27 isolates of Pseudomonas aeruginosa: strains 1-22 are clinical isolates from around the world collected between 2004-2007 which contain representative resistance mechanisms commonly found in Pseudomonas, such as the AAC(6′)-I, AAC(6′)-II, APH(3′)-IIb, ANT(2″)-I, and perm/efflux; strains 23-27 are susceptible.

[2] = tested on: Acinetobacter baumannii; experiment: MIC, CLSI broth microdilution, Acinetobacter baumannii panel; type: cell-based; details: Acinetobacter baumannii, read-out: MIC
Method: as §1
The MIC panel presented in Table 2 contains 29 isolates of Acinetobacter baumannii: strains 1-24 are clinical isolates from around the world collected between 2004-2007 which contain representative resistance mechanisms commonly found in Acinetobacter baumannii, such as AAC(3)-I and II, AAC(6′)-I, ANT(2″)-I, APH(3′)-VI, and perm/efflux; strains 25-29 are susceptible.

Structure (SMILES): NCC[C@H](O)C(=O)N[C@@H]1C[C@H](N)[C@@H](O[C@H]2O[C@H](CN)[C@@H](O)[C@H](O)[C@H]2O)[C@H](O)[C@H]1O[C@H]1O[C@H](CO)[C@@H](O)[C@H](N)[C@H]1O [AMK, amikacin]
- MIC ([1]; Pseudomonas aeruginosa, P. aeruginosa clinical strain 1 (resistant clinical isolate), read-out: MIC): ≥ 32 µg/mL
- MIC ([1]; Pseudomonas aeruginosa, P. aeruginosa clinical strain 2 (resistant clinical isolate), read-out: MIC): ≥ 32 µg/mL
- MIC ([1]; Pseudomonas aeruginosa, P. aeruginosa clinical strain 3 (resistant clinical isolate), read-out: MIC): ≥ 32 µg/mL
- MIC ([1]; Pseudomonas aeruginosa, P. aeruginosa clinical strain 4 (resistant clinical isolate), read-out: MIC): ≥ 32 µg/mL
- MIC ([1]; Pseudomonas aeruginosa, P. aeruginosa clinical strain 5 (resistant clinical isolate), read-out: MIC): ≥ 32 µg/mL
- MIC ([1]; Pseudomonas aeruginosa, P. aeruginosa clinical strain 6 (resistant clinical isolate), read-out: MIC): 8 to 16 µg/mL (≈ 13.7 to 27.3 µM)
- MIC ([1]; Pseudomonas aeruginosa, P. aeruginosa clinical strain 7 (resistant clinical isolate), read-out: MIC): 1 to 8 µg/mL (≈ 1.71 to 13.7 µM)
- MIC ([1]; Pseudomonas aeruginosa, P. aeruginosa clinical strain 8 (resistant clinical isolate), read-out: MIC): 16 to 32 µg/mL (≈ 27.3 to 54.6 µM)
- MIC ([1]; Pseudomonas aeruginosa, P. aeruginosa clinical strain 9 (resistant clinical isolate), read-out: MIC): 8 to 16 µg/mL (≈ 13.7 to 27.3 µM)
- MIC ([1]; Pseudomonas aeruginosa, P. aeruginosa clinical strain 10 (resistant clinical isolate), read-out: MIC): 16 to 32 µg/mL (≈ 27.3 to 54.6 µM)
- MIC ([1]; Pseudomonas aeruginosa, P. aeruginosa clinical strain 11 (resistant clinical isolate), read-out: MIC): ≤ 1 µg/mL
- MIC ([1]; Pseudomonas aeruginosa, P. aeruginosa clinical strain 12 (resistant clinical isolate), read-out: MIC): ≤ 1 µg/mL
- MIC ([1]; Pseudomonas aeruginosa, P. aeruginosa clinical strain 13 (resistant clinical isolate), read-out: MIC): 1 to 8 µg/mL (≈ 1.71 to 13.7 µM)
- MIC ([1]; Pseudomonas aeruginosa, P. aeruginosa clinical strain 14 (resistant clinical isolate), read-out: MIC): 1 to 8 µg/mL (≈ 1.71 to 13.7 µM)
- MIC ([1]; Pseudomonas aeruginosa, P. aeruginosa clinical strain 15 (resistant clinical isolate), read-out: MIC): 8 to 16 µg/mL (≈ 13.7 to 27.3 µM)
- MIC ([1]; Pseudomonas aeruginosa, P. aeruginosa clinical strain 16 (resistant clinical isolate), read-out: MIC): ≥ 32 µg/mL
- MIC ([1]; Pseudomonas aeruginosa, P. aeruginosa clinical strain 17 (resistant clinical isolate), read-out: MIC): ≥ 32 µg/mL
- MIC ([1]; Pseudomonas aeruginosa, P. aeruginosa clinical strain 18 (resistant clinical isolate), read-out: MIC): ≥ 32 µg/mL
- MIC ([1]; Pseudomonas aeruginosa, P. aeruginosa clinical strain 19 (resistant clinical isolate), read-out: MIC): ≥ 32 µg/mL
- MIC ([1]; Pseudomonas aeruginosa, P. aeruginosa clinical strain 20 (resistant clinical isolate), read-out: MIC): ≥ 32 µg/mL
- MIC ([1]; Pseudomonas aeruginosa, P. aeruginosa clinical strain 21 (resistant clinical isolate), read-out: MIC): 16 to 32 µg/mL (≈ 27.3 to 54.6 µM)
- MIC ([1]; Pseudomonas aeruginosa, P. aeruginosa clinical strain 22 (resistant clinical isolate), read-out: MIC): 16 to 32 µg/mL (≈ 27.3 to 54.6 µM)
- MIC ([1]; Pseudomonas aeruginosa, P. aeruginosa strain 23 (susceptible), read-out: MIC): 1 to 8 µg/mL (≈ 1.71 to 13.7 µM)
- MIC ([1]; Pseudomonas aeruginosa, P. aeruginosa strain 24 (susceptible), read-out: MIC): 1 to 8 µg/mL (≈ 1.71 to 13.7 µM)
- MIC ([1]; Pseudomonas aeruginosa, P. aeruginosa strain 25 (susceptible), read-out: MIC): 1 to 8 µg/mL (≈ 1.71 to 13.7 µM)
- MIC ([1]; Pseudomonas aeruginosa, P. aeruginosa strain 26 (susceptible), read-out: MIC): 1 to 8 µg/mL (≈ 1.71 to 13.7 µM)
- MIC ([1]; Pseudomonas aeruginosa, P. aeruginosa strain 27 (susceptible), read-out: MIC): ≤ 1 µg/mL
- MIC ([2]; A. baumannii clinical strain 1 (resistant clinical isolate)): ≥ 32 µg/mL
- MIC ([2]; A. baumannii clinical strain 2 (resistant clinical isolate)): ≥ 32 µg/mL
- MIC ([2]; A. baumannii clinical strain 3 (resistant clinical isolate)): 8 to 16 µg/mL (≈ 13.7 to 27.3 µM)
- MIC ([2]; A. baumannii clinical strain 4 (resistant clinical isolate)): 16 to 32 µg/mL (≈ 27.3 to 54.6 µM)
- MIC ([2]; A. baumannii clinical strain 5 (resistant clinical isolate)): ≥ 32 µg/mL
- MIC ([2]; A. baumannii clinical strain 6 (resistant clinical isolate)): ≥ 32 µg/mL
- MIC ([2]; A. baumannii clinical strain 7 (resistant clinical isolate)): ≥ 32 µg/mL
- MIC ([2]; A. baumannii clinical strain 8 (resistant clinical isolate)): ≥ 32 µg/mL
- MIC ([2]; A. baumannii clinical strain 9 (resistant clinical isolate)): 1 to 8 µg/mL (≈ 1.71 to 13.7 µM)
- MIC ([2]; A. baumannii clinical strain 10 (resistant clinical isolate)): 1 to 8 µg/mL (≈ 1.71 to 13.7 µM)
- MIC ([2]; A. baumannii clinical strain 11 (resistant clinical isolate)): ≥ 32 µg/mL
- MIC ([2]; A. baumannii clinical strain 12 (resistant clinical isolate)): ≥ 32 µg/mL
- MIC ([2]; A. baumannii clinical strain 13 (resistant clinical isolate)): ≥ 32 µg/mL
- MIC ([2]; A. baumannii clinical strain 14 (resistant clinical isolate)): ≥ 32 µg/mL
- MIC ([2]; A. baumannii clinical strain 15 (resistant clinical isolate)): ≥ 32 µg/mL
- MIC ([2]; A. baumannii clinical strain 16 (resistant clinical isolate)): ≥ 32 µg/mL
- MIC ([2]; A. baumannii clinical strain 17 (resistant clinical isolate)): ≥ 32 µg/mL
- MIC ([2]; A. baumannii clinical strain 18 (resistant clinical isolate)): ≥ 32 µg/mL
- MIC ([2]; A. baumannii clinical strain 19 (resistant clinical isolate)): 1 to 8 µg/mL (≈ 1.71 to 13.7 µM)
- MIC ([2]; A. baumannii clinical strain 20 (resistant clinical isolate)): 1 to 8 µg/mL (≈ 1.71 to 13.7 µM)
- MIC ([2]; A. baumannii clinical strain 21 (resistant clinical isolate)): ≥ 32 µg/mL
- MIC ([2]; A. baumannii clinical strain 22 (resistant clinical isolate)): ≥ 32 µg/mL
- MIC ([2]; A. baumannii clinical strain 23 (resistant clinical isolate)): ≥ 32 µg/mL
- MIC ([2]; A. baumannii clinical strain 24 (resistant clinical isolate)): ≥ 32 µg/mL
- MIC ([2]; A. baumannii strain 25 (susceptible)): ≤ 1 µg/mL
- MIC ([2]; A. baumannii strain 26 (susceptible)): 1 to 8 µg/mL (≈ 1.71 to 13.7 µM)
- MIC ([2]; A. baumannii strain 27 (susceptible)): 1 to 8 µg/mL (≈ 1.71 to 13.7 µM)
- MIC ([2]; A. baumannii strain 28 (susceptible)): 1 to 8 µg/mL (≈ 1.71 to 13.7 µM)
- MIC ([2]; A. baumannii strain 29 (susceptible)): ≤ 1 µg/mL

Structure (SMILES): NC[C@@H]1O[C@H](O[C@H]2[C@@H](O)[C@H](O[C@@H]3[C@@H](O)[C@H](N)C[C@H](N)[C@H]3O[C@H]3O[C@H](CN)[C@@H](O)[C@H](O)[C@H]3N)O[C@@H]2CO)[C@H](N)[C@@H](O)[C@@H]1O [Neo B, neomycin B]
- MIC ([1]; P. aeruginosa clinical strain 1 (resistant clinical isolate)): E (MIC's greater than or equal to 32.0 μg/mL = E)
- MIC ([1]; P. aeruginosa clinical strain 2 (resistant clinical isolate)): D (MIC's greater than or equal to 16.0 μg/mL and lower than 32 μg/mL = D)
- MIC ([1]; P. aeruginosa clinical strain 3 (resistant clinical isolate)): E (MIC's greater than or equal to 32.0 μg/mL = E)
- MIC ([1]; P. aeruginosa clinical strain 4 (resistant clinical isolate)): E (MIC's greater than or equal to 32.0 μg/mL = E)
- MIC ([1]; P. aeruginosa clinical strain 5 (resistant clinical isolate)): E (MIC's greater than or equal to 32.0 μg/mL = E)
- MIC ([1]; P. aeruginosa clinical strain 6 (resistant clinical isolate)): D (MIC's greater than or equal to 16.0 μg/mL and lower than 32 μg/mL = D)
- MIC ([1]; P. aeruginosa clinical strain 7 (resistant clinical isolate)): C (MIC's greater than or equal to 8 μg/mL and lower than 16.0 μg/mL = C)
- MIC ([1]; P. aeruginosa clinical strain 8 (resistant clinical isolate)): E (MIC's greater than or equal to 32.0 μg/mL = E)
- MIC ([1]; P. aeruginosa clinical strain 9 (resistant clinical isolate)): D (MIC's greater than or equal to 16.0 μg/mL and lower than 32 μg/mL = D)
- MIC ([1]; P. aeruginosa clinical strain 10 (resistant clinical isolate)): E (MIC's greater than or equal to 32.0 μg/mL = E)
- MIC ([1]; P. aeruginosa clinical strain 11 (resistant clinical isolate)): B (MIC's of greater than 1.0 μg/mL and lower than 8 μg/mL = B)
- MIC ([1]; P. aeruginosa clinical strain 12 (resistant clinical isolate)): E (MIC's greater than or equal to 32.0 μg/mL = E)
- MIC ([1]; P. aeruginosa clinical strain 13 (resistant clinical isolate)): E (MIC's greater than or equal to 32.0 μg/mL = E)
- MIC ([1]; P. aeruginosa clinical strain 14 (resistant clinical isolate)): E (MIC's greater than or equal to 32.0 μg/mL = E)
- MIC ([1]; P. aeruginosa clinical strain 15 (resistant clinical isolate)): E (MIC's greater than or equal to 32.0 μg/mL = E)
- MIC ([1]; P. aeruginosa clinical strain 16 (resistant clinical isolate)): E (MIC's greater than or equal to 32.0 μg/mL = E)
- MIC ([1]; P. aeruginosa clinical strain 17 (resistant clinical isolate)): C (MIC's greater than or equal to 8 μg/mL and lower than 16.0 μg/mL = C)
- MIC ([1]; P. aeruginosa clinical strain 18 (resistant clinical isolate)): E (MIC's greater than or equal to 32.0 μg/mL = E)
- MIC ([1]; P. aeruginosa clinical strain 19 (resistant clinical isolate)): E (MIC's greater than or equal to 32.0 μg/mL = E)
- MIC ([1]; P. aeruginosa clinical strain 20 (resistant clinical isolate)): E (MIC's greater than or equal to 32.0 μg/mL = E)
- MIC ([1]; P. aeruginosa clinical strain 21 (resistant clinical isolate)): E (MIC's greater than or equal to 32.0 μg/mL = E)
- MIC ([1]; P. aeruginosa clinical strain 22 (resistant clinical isolate)): E (MIC's greater than or equal to 32.0 μg/mL = E)
- MIC ([1]; P. aeruginosa strain 23 (susceptible)): B (MIC's of greater than 1.0 μg/mL and lower than 8 μg/mL = B)
- MIC ([1]; P. aeruginosa strain 24 (susceptible)): B (MIC's of greater than 1.0 μg/mL and lower than 8 μg/mL = B)
- MIC ([1]; P. aeruginosa strain 25 (susceptible)): B (MIC's of greater than 1.0 μg/mL and lower than 8 μg/mL = B)
- MIC ([1]; P. aeruginosa strain 26 (susceptible)): C (MIC's greater than or equal to 8 μg/mL and lower than 16.0 μg/mL = C)
- MIC ([1]; P. aeruginosa strain 27 (susceptible)): B (MIC's of greater than 1.0 μg/mL and lower than 8 μg/mL = B)
